According to PMC11249646, “Small-Molecule Disruptors of the Interaction between Calcium- and Integrin-Binding Protein 1 and Integrin αIIbβ3 as Novel Antiplatelet Agents” (ACS Pharmacology & Translational Science, 2024):
pIC50: −log10 of the molar value. Read-outs that look alike come from different tables or passages of the source.

Tests used:
Format in all cases: binding
[1] = molecular target: T1, CIB1 and αIIb interaction (GST-CIB1 : F-αIIb peptide) (Homo sapiens, UniProt Q99828); assay: FP assay, 384-well format (screen); parameters: 384-well SCREEN Efficacy (%): concentration or dose not given beside the values; conditions: F-αIIb peptide; for 384-well SCREEN Confirm?: YES/NO; for pIC50: read-out: 384-well SCREEN IC50
T1 construct: made in house; host or cells: BL-21 plus RIL cells (E. coli)
T1 sequence (Q99828 1-191): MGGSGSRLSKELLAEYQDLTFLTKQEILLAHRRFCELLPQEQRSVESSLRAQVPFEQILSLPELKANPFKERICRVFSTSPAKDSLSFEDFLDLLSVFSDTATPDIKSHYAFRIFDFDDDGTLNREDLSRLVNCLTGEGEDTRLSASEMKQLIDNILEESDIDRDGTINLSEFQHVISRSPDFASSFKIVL

[2] = molecular target: T2, GST-CIB1 : F-scrambled peptide (Homo sapiens, UniProt Q99828); assay: FP scrambled-peptide counter screen, 384-well format; conditions: F-scrambled peptide; for 384-well COUNTERSCREEN Confirm?: *: Curve in opposite direction; for pIC50: read-out: 384-well COUNTERSCREEN IC50
T2 construct: made in house; host or cells: BL-21 plus RIL cells (E. coli)
T2 sequence (Q99828 1-191): T1 sequence (Q99828 1-191)

[3] = molecular target: T2, GST-CIB1 : F-scrambled peptide; assay: FP scrambled-peptide counter screen, 1536-well format; conditions: for COUNTERSCREEN Confirm?: YES/NO call; for COUNTERSCREEN Curve Class: qHTS curve class
[4] = molecular target: T3, CIB1 and αIIb interaction (CIB1-GST : F-αIIb peptide) (Homo sapiens, UniProt Q99828); assay: FP assay, 1536-well qHTS format (primary and confirmatory screen); conditions: for CONFIRMATORY SCREEN Confirm?: YES/NO call; for CONFIRMATORY SCREEN Curve Class: qHTS curve class; for CONFIRMATORY SCREEN Curve Class / Curve Class: negative sign = inhibitory curve
T3 construct: made in house; host or cells: BL-21 plus RIL cells (E. coli)
T3 sequence (Q99828 1-191): T1 sequence (Q99828 1-191)

[5] = scrambled-peptide counterscreen
[6] = confirmatory screen, negative = inhibition
[7] = confirmatory screen, read-out: CONFIRMATORY SCREEN IC50
[8] = qHTS FP screen hits, Table S2, negative = inhibition
[9] = qHTS FP screen hits, Table S2, one class per curve where COUNT > 1
[10] = qHTS primary screen hits, Table S2, negative = inhibition
[11] = qHTS primary screen hits, Table S2, several classes where COUNT > 1
[12] = qHTS primary screen hits, Table S2, read-out: IC50
[13] = qHTS primary screen hits, Table S2

Row | SMILES | 384-well SCREEN Efficacy (%) [1] | 384-well SCREEN Confirm? [1] | pIC50 [1] | 384-well COUNTERSCREEN Efficacy (%) [2] | 384-well COUNTERSCREEN Confirm? [2] | pIC50 [2] | COUNTERSCREEN Efficacy (%) [3, 5] | COUNTERSCREEN Confirm? [3, 5] | COUNTERSCREEN Curve Class [3, 5] | CONFIRMATORY SCREEN Confirm? ([4]; confirmatory screen) | CONFIRMATORY SCREEN Curve Class ([4]; confirmatory screen) | CONFIRMATORY SCREEN Efficacy (%) [4, 6] | pIC50 [4, 7] | Efficacy (%) [4, 10] | Curve Class [4, 11] | pIC50 [4, 12] | further results
1 | O=C(Nc1nc(-c2ccccc2)cs1)c1ccncc1NS(=O)(=O)c1ccc(Cl)cc1.O=C(O)C(F)(F)F [NCGC00344892-02] | 31% | YES | 4.45 | 55% | YES | < 3.92 | 13% | YES | 4 | YES | -1.2 | -69% | 4.60 |  |  |  | 
2 | COc1ccccc1S(=O)(=O)Nc1cnccc1C(=O)Nc1nc(-c2ccccc2)cs1.O=C(O)C(F)(F)F [NCGC00344905-01] | 37% | YES | 5.15 | 44% |  | 5.00 | -15% | YES | 4 | YES | -2.2 | -79% |  |  |  |  | Efficacy (%) [4, 8]: -43%; Curve Class [4, 9]: -2.2
3 | CCc1ccc(S(=O)(=O)Nc2cnccc2C(=O)Nc2nc(-c3ccccc3)cs2)cc1.O=C(O)C(F)(F)F [NCGC00344909-01] | 40% | YES | 4.45 | 44% | YES | < 3.92 | 14% | YES | 4 | YES | -2.2 | -82% | 4.65 | -57% | -2.2 | 4.10 | 
4 | O=C(Nc1nc(-c2ccccc2)cs1)c1ccncc1NS(=O)(=O)c1cccc2cccnc12.O=C(O)C(F)(F)F [NCGC00344938-01] | 16% | YES | 5.20 | 18% | YES | < 3.92 | -33% | YES | -2.4 | YES | -2.2 | -93% | 4.45 | -56% | -2.2 | 4.40 | pIC50 ([3]; scrambled-peptide counterscreen, read-out: COUNTERSCREEN IC50): 4.15
5 | Cc1ccccc1S(=O)(=O)Nc1cnccc1C(=O)Nc1nc(-c2ccccc2)cs1.O=C(O)C(F)(F)F [NCGC00344941-01] | 35% | YES | 4.75 | 20% | YES | < 3.92 | 10% | YES | 4 | YES | -1.2 | -59% |  | -51% | -2.2 | 4.35 | 
6 | O=C(Nc1nc(-c2ccccc2)cs1)c1ccncc1NS(=O)(=O)c1ccccc1Cl.O=C(O)C(F)(F)F [NCGC00344943-01] | 32% | YES | 4.80 | 31% | YES | < 3.92 | 25% | YES | 4 | YES | -1.1 | -98% |  |  |  |  | 
7 | Cc1cc(S(=O)(=O)Nc2cnccc2C(=O)Nc2nc(-c3ccccc3)cs2)c(C)o1.O=C(O)C(F)(F)F [NCGC00345029-01] | 42% | YES | 4.70 | 16% | YES | < 3.92 | 10% | YES | 4 | YES | -1.1 | -83% |  |  |  |  | 
8 | O=C(Nc1nc(-c2ccccc2)cs1)c1ccncc1NS(=O)(=O)c1ccc2ccccc2c1.O=C(O)C(F)(F)F [NCGC00345031-01] | 47% | YES |  | 81% | YES* | 4.55 |  | YES | 3 | YES | -1.4 |  | 4.70 | -53% |  | 4.40 | COUNTERSCREEN Efficacy (%) [3]: 0%; CONFIRMATORY SCREEN Efficacy (%) [4]: -84%; Curve Class [4, 13]: -2.2
9 | Cc1cc(F)ccc1S(=O)(=O)Nc1cnccc1C(=O)Nc1nc(-c2ccccc2)cs1 [NCGC00345106-03] | 46% | YES | 4.55 | 38% | YES | < 3.92 | 28% | YES | 4 | YES | -2.1 | -123% | 4.55 |  |  |  | Efficacy (%) [4, 8]: -51%; Curve Class [4, 9]: -2.2; pIC50 ([4]; qHTS FP screen hits, Table S2, read-out: IC50): 4.30
10 | O=C(O)C1=NC(C(=O)O)CC(/C=C/N2c3cc(O)c(OC4OC(CO)C(O)C(O)C4O)cc3CC2C(=O)O)=C1 (stereo not shown) [NCGC00346734-01] | 43% | YES | 4.40 | 10% | YES | < 3.92 | -18% | YES | 4 | YES | -2.2 | -66% | 4.30 | -25% |  | 4.62 | Curve Class [4, 13]: -2.4
